# Biological target: T1, GAK (Homo sapiens, UniProt O14976)
# T1 construct: endogenous in cells; host or cells: THP-1
# T1 sequence (O14976 1-1311): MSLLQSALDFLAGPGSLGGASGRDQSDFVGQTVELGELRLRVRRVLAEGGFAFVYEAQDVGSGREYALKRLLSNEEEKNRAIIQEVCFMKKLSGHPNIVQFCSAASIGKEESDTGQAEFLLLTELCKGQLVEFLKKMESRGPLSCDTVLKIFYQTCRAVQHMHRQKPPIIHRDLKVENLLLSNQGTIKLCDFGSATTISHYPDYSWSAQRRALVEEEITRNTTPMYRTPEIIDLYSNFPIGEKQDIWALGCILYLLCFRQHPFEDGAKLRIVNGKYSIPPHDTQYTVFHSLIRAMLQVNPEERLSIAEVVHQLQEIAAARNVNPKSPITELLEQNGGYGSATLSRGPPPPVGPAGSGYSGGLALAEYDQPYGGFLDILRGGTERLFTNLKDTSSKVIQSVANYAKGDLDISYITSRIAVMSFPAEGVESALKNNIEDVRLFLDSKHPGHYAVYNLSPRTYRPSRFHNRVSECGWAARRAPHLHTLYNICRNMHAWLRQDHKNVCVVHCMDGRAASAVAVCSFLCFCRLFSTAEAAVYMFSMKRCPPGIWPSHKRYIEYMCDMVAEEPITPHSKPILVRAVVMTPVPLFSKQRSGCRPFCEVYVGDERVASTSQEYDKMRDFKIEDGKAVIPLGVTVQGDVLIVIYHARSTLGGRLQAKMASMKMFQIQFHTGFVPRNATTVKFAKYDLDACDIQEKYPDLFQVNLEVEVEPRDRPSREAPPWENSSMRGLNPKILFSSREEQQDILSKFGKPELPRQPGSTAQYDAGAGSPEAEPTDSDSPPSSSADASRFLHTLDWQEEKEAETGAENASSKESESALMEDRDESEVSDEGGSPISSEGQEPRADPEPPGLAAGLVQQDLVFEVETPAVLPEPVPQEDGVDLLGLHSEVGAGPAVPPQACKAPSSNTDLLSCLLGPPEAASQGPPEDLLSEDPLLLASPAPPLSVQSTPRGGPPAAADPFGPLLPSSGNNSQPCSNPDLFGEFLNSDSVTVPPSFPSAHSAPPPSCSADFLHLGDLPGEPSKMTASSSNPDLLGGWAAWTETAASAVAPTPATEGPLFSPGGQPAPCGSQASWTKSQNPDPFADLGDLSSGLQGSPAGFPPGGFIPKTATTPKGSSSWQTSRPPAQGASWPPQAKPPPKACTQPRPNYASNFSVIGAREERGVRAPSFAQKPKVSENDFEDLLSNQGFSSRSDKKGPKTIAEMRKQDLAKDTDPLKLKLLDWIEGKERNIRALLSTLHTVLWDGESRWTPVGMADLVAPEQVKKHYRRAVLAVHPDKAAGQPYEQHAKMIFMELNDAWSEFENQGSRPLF
# Assay: Expression proteomics in THP-1 cells: GAK protein level
# Type: cell-based
# Protocol: THP-1 cells were seeded at a concentration of 3×10^6 cells in T175 flasks with 60 mL growth medium (RPMI1640+10% FBS). […] of a 10× compound solution prepared in growth medium (DMSO), CEREBLON_PROTAC) was added and the cells were treated for the indicated time points (6 or 24 h) at 37° C., 5% CO2. For harvesting the cells were collected into falcon tubes on ice, centrifuged and washed twice in cold PBS (Life technologies). After the last washing step the supernatant was removed and the pellets were snap-frozen in liquid N2 and stored at −80° C. and lysed in 2% SDS for 3 min at 95° C. in a thermomixer (Thermo Fisher Scientific), followed by digestion of DNA with Benzonase at 37° C. for 1.5 h. Lysate was cleared by centrifugation an protein concentration in supernatant was determined by BCA assay.
# Leukemia 25, 89-100 (2011).
# Samples were dried in vacuo and resuspended in 0.05% trifluoroacetic acid in water. Of the sample, 50% was injected into an Ultimate3000 nanoRLSC (Dionex, Sunnyvale, Calif.) coupled to a Q Exactive HF (Thermo Fisher Scientific). Peptides were trapped on a 5 mm×300 μm C18 column (Pepmap100, 5 μm, 300 Å, Thermo Fisher Scientific) in water with 0.05% TFA at 60° C. Separation was performed on custom 50 cm×[…] (ID) reversed-phase columns (Reprosil) at 55° C. Gradient elution was performed from 2% acetonitrile to 40% acetonitrile in 0.1% formic acid and 3.5% DMSO over 2 hours. Samples were online injected into Q-Exactive HF mass spectrometers operating with a data-dependent top 10 method. MS spectra were acquired by using 60.000 resolution and an ion target of 3×10^6. Higher energy collisional dissociation (HCD) scans were performed with 35% NCE at 30.000 resolution (at m/z 200), and the ion target settings was set to 2×10^5 so as to avoid coalescence (Werner, T. et al. Ion Coalescence of Neutron Encoded TMT 10-Plex Reporter Ions. Anal. Chem. 86, 3594-3601 (2014).
# The first search was performed with 30 parts per million mass tolerance for peptide precursors and 30 mD (HCD) mass tolerance for fragment ions followed by a final search using recalibrated data with a 10 parts per million mass tolerance for peptide precursors and 20 mD (HCD) mass tolerance for fragment ions. Carbamidomethylation of cysteine residues and TMT modification of lysine residues were set as fixed modifications and methionine oxidation, and N-terminal acetylation of proteins and TMT modification of peptide N-termini were set as variable modifications. […]
# Nat Biotech 29, 255-265 (2011). this measure is referred to as ion area Savitski, M. M. et al. Delayed Fragmentation and Optimized Isolation Width Settings for Improvement of Protein Identification and Accuracy of Isobaric Mass Tag Quantification on Orbitrap-Type Mass Spectrometers. […]
compound,measurement,setting,value
"CNC(=O)c1ccccc1Nc1nc(Nc2ccc(N3CCN(CCOCCOCCOCCOCC(=O)Nc4cccc5c4CN(C4CCC(=O)NC4=O)C5=O)CC3)cc2)ncc1Cl.O=CO (stereo not shown) [CEREBLON_PROTAC, 14-(4-(4-((5-Chloro-4-((2-(methylcarbamoyl)phenyl)amino)pyrimidin-2-yl)amino)phenyl)piperazin-1-yl)-N-(2-(2,6-dioxopiperidin-3-yl)-1-oxoisoindolin-4-yl)-3,6,9,12-tetraoxatetradecan-1-amide formate]",log2 rel. fc. to vehicle control,"24 h 0.1 μM, n = 1",−1.13
same,log2 rel. fc. to vehicle control,"24 h 0.1 μM, n = 2",−1.35
same,log2 rel. fc. to vehicle control,"24 h 1 μM, n = 1",−0.93
same,log2 rel. fc. to vehicle control,"24 h 1 μM, n = 2",−1.13

# — patent US20190210996A1, “NOVEL COMPOUNDS” (GLAXOSMITHKLINE INTELLECTUAL PROPERTY DEVELOPMENT LIMITED, priority 2016, published 2019)
